Experimental data: ChEMBL document CHEMBL4152339, “Design and synthesis of novel 1H-tetrazol-5-amine based potent antimicrobial agents: DNA topoisomerase IV and gyrase affinity evaluation supported by molecular docking studies” (Eur J Med Chem, 2018)
Values after ≈ are worked out from the molar mass of the structure shown.

How the values were obtained:
[1] = tested on: Staphylococcus epidermidis; experiment: Antibacterial activity against Staphylococcus epidermidis 423 after 18 hrs by CLSI disc diffusion method; format: functional; conditions: Staphylococcus epidermidis, 423, 18 h
[2] = Selectivity index, ratio of IC50 for human HaCaT cells to MIC for Bordetella bronchiseptica ATCC 4617; format: toxicity; conditions: read-out: Selectivity Index
[3] = tested on: Staphylococcus epidermidis; experiment: Antibacterial activity against Staphylococcus epidermidis 432 after 18 hrs by CLSI disc diffusion method; format: functional; conditions: Staphylococcus epidermidis, 432, 18 h
A549 = experiment: Cytotoxicity activity against human A549 cells assessed as reduction in cell viability after 72 hrs by MTT assay; format: cell-based; conditions: A549, 72 h
[4] = Selectivity index, ratio of IC50 for human HaCaT cells to MIC for Staphylococcus aureus NCTC 4163; format: toxicity; conditions: read-out: Selectivity Index
[5] = tested on: Staphylococcus epidermidis; experiment: Antibacterial activity against Staphylococcus epidermidis 511 after 18 hrs by CLSI disc diffusion method; format: functional; conditions: Staphylococcus epidermidis, 511, 18 h
Bacillus spizizenii = experiment: Antibacterial activity against Bacillus subtilis ATCC 6633 after 18 hrs by CLSI disc diffusion method; format: functional; conditions: ATCC 6633, 18 h
[6] = Selectivity index, ratio of IC50 for human HaCaT cells to MIC for Enterococcus hirae ATCC 10541; format: toxicity; conditions: read-out: Selectivity Index
[7] = tested on: Staphylococcus epidermidis; experiment: Antibacterial activity against Staphylococcus epidermidis 433 after 18 hrs by CLSI disc diffusion method; format: functional; conditions: Staphylococcus epidermidis, 433, 18 h
Micrococcus luteus [8] = experiment: Antibacterial activity against Micrococcus luteus ATCC 10240 after 18 hrs by CLSI disc diffusion method; format: functional; conditions: ATCC 10240, 18 h
[9] = tested on: Staphylococcus epidermidis; experiment: Antibacterial activity against Staphylococcus epidermidis ATCC 35984 after 18 hrs by CLSI […] method; format: functional; conditions: ATCC 35984, 18 h
[10] = tested on: Bordetella bronchiseptica; experiment: Antibacterial activity against Bordetella bronchiseptica ATCC 4617 after 18 hrs by CLSI disc diffusion method; format: functional; conditions: ATCC 4617, 18 h
Escherichia coli [11] = experiment: Antibacterial activity against Escherichia coli ML 6 after 18 hrs by CLSI disc diffusion method; format: functional; conditions: ML 6, 18 h
Staphylococcus aureus [12] = experiment: Antibacterial activity against Staphylococcus aureus 497 after 18 hrs by CLSI disc diffusion method; format: functional; conditions: Staphylococcus aureus, 497, 18 h
Staphylococcus aureus [13] = experiment: Antibacterial activity against Staphylococcus aureus 572 after 18 hrs by CLSI disc diffusion method; format: functional; conditions: Staphylococcus aureus, 572, 18 h
Pseudomonas aeruginosa [14] = experiment: Antibacterial activity against Pseudomonas aeruginosa ATCC 27853 after 18 hrs by CLSI disc diffusion method; format: functional; conditions: ATCC 27853, 18 h
Pseudomonas aeruginosa [15] = experiment: Antibacterial activity against Pseudomonas aeruginosa 11m after 18 hrs by CLSI disc diffusion method; format: functional
[16] = tested on: Staphylococcus epidermidis; experiment: Antibacterial activity against Staphylococcus epidermidis 510 after 18 hrs by CLSI disc diffusion method; format: functional; conditions: Staphylococcus epidermidis, 510, 18 h
Micrococcus luteus [17] = experiment: Antibacterial activity against Micrococcus luteus ATCC 9341 after 18 hrs by CLSI disc diffusion method; format: functional; conditions: ATCC 9341, 18 h
[18] = Selectivity index, ratio of IC50 for human HaCaT cells to MIC for Proteus vulgaris NCTC 4635; format: toxicity; conditions: read-out: Selectivity Index
Proteus vulgaris = experiment: Antibacterial activity against Proteus vulgaris NCTC 4635 after 18 hrs by CLSI disc diffusion method; format: functional; conditions: NCTC 4635, 18 h
Enterococcus faecalis = experiment: Antibacterial activity against Enterococcus faecalis ATCC 29212 after 18 hrs by CLSI disc diffusion method; format: functional; conditions: ATCC 29212, 18 h
[19] = Selectivity index, ratio of IC50 for human HaCaT cells to MIC for Micrococcus luteus ATCC 10240; format: toxicity; conditions: read-out: Selectivity Index
Escherichia coli [20] = experiment: Antibacterial activity against Escherichia coli ML 9 after 18 hrs by CLSI disc diffusion method; format: functional; conditions: ML 9, 18 h
Escherichia coli [21] = experiment: Antibacterial activity against Escherichia coli ML 16 after 18 hrs by CLSI disc diffusion method; format: functional; conditions: ML 16, 18 h
Pseudomonas aeruginosa [22] = experiment: Antibacterial activity against Pseudomonas aeruginosa 7m after 18 hrs by CLSI disc diffusion method; format: functional
Bacillus cereus = experiment: Antibacterial activity against Bacillus cereus ATCC 11778 after 18 hrs by CLSI disc diffusion method; format: functional; conditions: ATCC 11778, 18 h
Escherichia coli [23] = experiment: Antibacterial activity against Escherichia coli ML 15 after 18 hrs by CLSI disc diffusion method; format: functional; conditions: ML 15, 18 h
Staphylococcus aureus [24] = experiment: Antibacterial activity against Staphylococcus aureus 586 after 18 hrs by CLSI disc diffusion method; format: functional; conditions: Staphylococcus aureus, 586, 18 h
[25] = Inhibition of Staphylococcus aureus DNA topoisomerase 4 using Kinetoplast DNA as substrate after 30 mins by ethidium bromide staining based agarose gel electrophoresis method
Staphylococcus aureus [26] = experiment: Antibacterial activity against Staphylococcus aureus 495 after 18 hrs by CLSI disc diffusion method; format: functional; conditions: Staphylococcus aureus, 495, 18 h
[27] = Selectivity index, ratio of IC50 for human HaCaT cells to MIC for Escherichia coli ATCC 10538; format: toxicity; conditions: read-out: Selectivity Index
[28] = Selectivity index, ratio of IC50 for human HaCaT cells to MIC for Bacillus subtilis ATCC 6633; format: toxicity; conditions: read-out: Selectivity Index
Pseudomonas aeruginosa [29] = experiment: Antibacterial activity against Pseudomonas aeruginosa 6m after 18 hrs by CLSI disc diffusion method; format: functional
[30] = tested on: Staphylococcus epidermidis; experiment: Antibacterial activity against Staphylococcus epidermidis 471 after 18 hrs by CLSI disc diffusion method; format: functional; conditions: Staphylococcus epidermidis, 471, 18 h
[31] = tested on: Staphylococcus epidermidis; experiment: Antibacterial activity against Staphylococcus epidermidis ATCC 12228 after 18 hrs by CLSI disc diffusion method; format: functional; conditions: ATCC 12228, 18 h
[32] = tested on: Staphylococcus epidermidis; experiment: Antibacterial activity against Staphylococcus epidermidis 469 after 18 hrs by CLSI disc diffusion method; format: functional; conditions: Staphylococcus epidermidis, 469, 18 h
Pseudomonas aeruginosa [33] = experiment: Antibacterial activity against Pseudomonas aeruginosa 31m after 18 hrs by CLSI disc diffusion method; format: functional
Escherichia coli [34] = experiment: Antibacterial activity against Escherichia coli ATCC 10538 after 18 hrs by CLSI disc diffusion method; format: functional; conditions: ATCC 10538, 18 h
Pseudomonas aeruginosa [35] = experiment: Antibacterial activity against Pseudomonas aeruginosa ATCC 15442 after 18 hrs by CLSI disc diffusion method; format: functional; conditions: ATCC 15442, 18 h
Staphylococcus aureus [36] = experiment: Antibacterial activity against Staphylococcus aureus ATCC 6538 after 18 hrs by CLSI disc diffusion method; format: functional; conditions: ATCC 6538, 18 h
HaCaT = experiment: Cytotoxicity activity against human HaCaT cells assessed as reduction in cell viability after 72 hrs by MTT assay; format: cell-based
Enterococcus hirae = experiment: Antibacterial activity against Enterococcus hirae ATCC 10541 after 18 hrs by CLSI disc diffusion method; format: functional; conditions: ATCC 10541, 18 h
Staphylococcus aureus [37] = experiment: Antibacterial activity against Staphylococcus aureus ATCC 25923 after 18 hrs by CLSI disc diffusion method; format: functional; conditions: ATCC 25923, 18 h
[38] = tested on: Staphylococcus epidermidis; experiment: Antibacterial activity against Staphylococcus epidermidis 431 after 18 hrs by CLSI disc diffusion method; format: functional; conditions: Staphylococcus epidermidis, 431, 18 h
Pseudomonas aeruginosa [39] = experiment: Antibacterial activity against Pseudomonas aeruginosa 18m after 18 hrs by CLSI disc diffusion method; format: functional
Escherichia coli [40] = experiment: Antibacterial activity against Escherichia coli ML 12 after 18 hrs by CLSI disc diffusion method; format: functional; conditions: ML 12, 18 h
Pseudomonas aeruginosa [41] = experiment: Antibacterial activity against Pseudomonas aeruginosa 12m after 18 hrs by CLSI disc diffusion method; format: functional
Escherichia coli [42] = experiment: Antibacterial activity against Escherichia coli ML 5 after 18 hrs by CLSI disc diffusion method; format: functional; conditions: ML 5, 18 h
Staphylococcus aureus [43] = experiment: Antibacterial activity against Staphylococcus aureus NCTC 4163 after 18 hrs by CLSI disc diffusion method; format: functional; conditions: NCTC 4163, 18 h
Staphylococcus aureus [44] = experiment: Antibacterial activity against Staphylococcus aureus 498 after 18 hrs by CLSI disc diffusion method; format: functional; conditions: Staphylococcus aureus, 498, 18 h
Staphylococcus aureus [45] = experiment: Antibacterial activity against Staphylococcus aureus 496 after 18 hrs by CLSI disc diffusion method; format: functional; conditions: Staphylococcus aureus, 496, 18 h
Escherichia coli [46] = experiment: Antibacterial activity against Escherichia coli ML 17 after 18 hrs by CLSI disc diffusion method; format: functional; conditions: ML 17, 18 h
Staphylococcus aureus [47] = experiment: Antibacterial activity against Staphylococcus aureus 537 after 18 hrs by CLSI disc diffusion method; format: functional; conditions: Staphylococcus aureus, 537, 18 h
Staphylococcus aureus [48] = experiment: Antibacterial activity against Staphylococcus aureus 585 after 18 hrs by CLSI disc diffusion method; format: functional; conditions: Staphylococcus aureus, 585, 18 h
Escherichia coli [49] = experiment: Antibacterial activity against Escherichia coli ML 8 after 18 hrs by CLSI disc diffusion method; format: functional; conditions: ML 8, 18 h
Pseudomonas aeruginosa [50] = experiment: Antibacterial activity against Pseudomonas aeruginosa 16m after 18 hrs by CLSI disc diffusion method; format: functional
Pseudomonas aeruginosa [51] = experiment: Antibacterial activity against Pseudomonas aeruginosa 10m after 18 hrs by CLSI disc diffusion method; format: functional

MIC [1]: 7 µM (≈ 2.03 µg/mL)
MIC [3]: 14 µM (≈ 4.06 µg/mL)
MIC [5]: 14 µM (≈ 4.06 µg/mL)
MIC (Bacillus spizizenii): 7 µM (≈ 2.03 µg/mL)
MIC [7]: 14 µM (≈ 4.06 µg/mL)
MIC (Micrococcus luteus [8]): 7 µM (≈ 2.03 µg/mL)
MIC [9]: 7 µM (≈ 2.03 µg/mL)
MIC [10]: 14 µM (≈ 4.06 µg/mL)
MIC (Escherichia coli [11]): 111 µM (≈ 32.2 µg/mL)
MIC (Staphylococcus aureus [12]): 7 µM (≈ 2.03 µg/mL)
MIC (Staphylococcus aureus [13]): 14 µM (≈ 4.06 µg/mL)
MIC (Pseudomonas aeruginosa [14]): 14 µM (≈ 4.06 µg/mL)
MIC (Pseudomonas aeruginosa [15]): 28 µM (≈ 8.11 µg/mL)
MIC [16]: 14 µM (≈ 4.06 µg/mL)
MIC (Micrococcus luteus [17]): 14 µM (≈ 4.06 µg/mL)
MIC (Proteus vulgaris): 14 µM (≈ 4.06 µg/mL)
MIC (Enterococcus faecalis): 56 µM (≈ 16.2 µg/mL)
MIC (Escherichia coli [20]): 28 µM (≈ 8.11 µg/mL)
MIC (Escherichia coli [21]): 14 µM (≈ 4.06 µg/mL)
MIC (Pseudomonas aeruginosa [22]): 14 µM (≈ 4.06 µg/mL)
MIC (Bacillus cereus): 7 µM (≈ 2.03 µg/mL)
MIC (Escherichia coli [23]): 111 µM (≈ 32.2 µg/mL)
MIC (Staphylococcus aureus [24]): 14 µM (≈ 4.06 µg/mL)
IC50 [25]: 11.9 µg/mL (≈ 41.1 µM)
MIC (Staphylococcus aureus [26]): 7 µM (≈ 2.03 µg/mL)
MIC (Pseudomonas aeruginosa [29]): 14 µM (≈ 4.06 µg/mL)
MIC [30]: 14 µM (≈ 4.06 µg/mL)
MIC [31]: 7 µM (≈ 2.03 µg/mL)
MIC [32]: 7 µM (≈ 2.03 µg/mL)
MIC (Pseudomonas aeruginosa [33]): 14 µM (≈ 4.06 µg/mL)
MIC (Escherichia coli [34]): 14 µM (≈ 4.06 µg/mL)
MIC (Pseudomonas aeruginosa [35]): 111 µM (≈ 32.2 µg/mL)
MIC (Staphylococcus aureus [36]): 7 µM (≈ 2.03 µg/mL)
MIC (Enterococcus hirae): 28 µM (≈ 8.11 µg/mL)
MIC (Staphylococcus aureus [37]): 14 µM (≈ 4.06 µg/mL)
MIC [38]: 7 µM (≈ 2.03 µg/mL)
MIC (Pseudomonas aeruginosa [39]): 28 µM (≈ 8.11 µg/mL)
MIC (Escherichia coli [40]): 111 µM (≈ 32.2 µg/mL)
MIC (Pseudomonas aeruginosa [41]): 14 µM (≈ 4.06 µg/mL)
MIC (Escherichia coli [42]): 14 µM (≈ 4.06 µg/mL)
MIC (Staphylococcus aureus [43]): 14 µM (≈ 4.06 µg/mL)
MIC (Staphylococcus aureus [44]): 7 µM (≈ 2.03 µg/mL)
MIC (Staphylococcus aureus [45]): 14 µM (≈ 4.06 µg/mL)
MIC (Escherichia coli [46]): 14 µM (≈ 4.06 µg/mL)
MIC (Staphylococcus aureus [47]): 14 µM (≈ 4.06 µg/mL)
MIC (Staphylococcus aureus [48]): 7 µM (≈ 2.03 µg/mL)
MIC (Escherichia coli [49]): 14 µM (≈ 4.06 µg/mL)
MIC (Pseudomonas aeruginosa [50]): 28 µM (≈ 8.11 µg/mL)
MIC (Pseudomonas aeruginosa [51]): 14 µM (≈ 4.06 µg/mL)
Structure (SMILES): Cc1ccc(-n2nnnc2NCc2ccco2)cc1Cl
selectivity ratio [2]: 11.4
IC50 (A549): 78 µM
selectivity ratio [4]: 5.71
selectivity ratio [6]: 2.85
selectivity ratio [18]: 11.4
selectivity ratio [19]: 11.4
selectivity ratio [27]: 11.4
selectivity ratio [28]: 11.4
IC50 (HaCaT): 80 µM
